In assay [1] the target is T1, UGT85A3 (Arabidopsis thaliana, UniProt Q9LMF1).
T1 sequence (Q9LMF1 1-488): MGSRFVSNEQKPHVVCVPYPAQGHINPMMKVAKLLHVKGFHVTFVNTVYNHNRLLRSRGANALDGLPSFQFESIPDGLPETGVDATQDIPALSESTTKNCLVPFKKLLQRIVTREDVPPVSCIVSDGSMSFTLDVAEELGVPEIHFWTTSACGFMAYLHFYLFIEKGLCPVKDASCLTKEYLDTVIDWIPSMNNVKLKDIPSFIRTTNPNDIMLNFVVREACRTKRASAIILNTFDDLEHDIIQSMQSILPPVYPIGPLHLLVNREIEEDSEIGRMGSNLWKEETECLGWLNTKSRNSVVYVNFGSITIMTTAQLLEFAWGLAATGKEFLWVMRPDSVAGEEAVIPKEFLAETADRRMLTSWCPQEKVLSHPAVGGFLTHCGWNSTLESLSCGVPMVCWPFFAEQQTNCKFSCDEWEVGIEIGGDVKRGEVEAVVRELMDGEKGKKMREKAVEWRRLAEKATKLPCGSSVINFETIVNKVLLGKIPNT
The assay can be described thus: Glycosylation activity of purified UGT85A3 on sugar acceptor substrates, LC-MS. Set-up: made in house; host or cells: E. coli BL21(DE3). The assay is classed as biochemical. Conditions: for glycosylation activity of UGT85A3 on the sugar acceptor (product detected by LC-MS): 2 mM UDP-glucose, 1.5 mM sugar acceptor substrate, pH 7.5, 30° C., 1 hour. As to the method:
Standard enzyme reaction conditions are as follows. […] LC Conditions Column: CAPCELL PAK C18-UG120 (2.0 mm I.D.×150 mm) Mobile phase: A: water (containing 0.05% formic acid), B: acetonitrile Gradient: linear concentration gradient of B from 15% to 90% over 15 minutes Flow rate: 0.2 ml per minute Column oven: 40° C. MS Conditions ESI (negative mode) SIM mode: (m/z 315, 338, 361, 363, 331, 354, 377, 429, etc.)

In assay [2] the target is T2, UGT85A1 (Arabidopsis thaliana, UniProt Q9SK82).
T2 construct: made in house; host or cells: E. coli
T2 sequence (Q9SK82 1-489): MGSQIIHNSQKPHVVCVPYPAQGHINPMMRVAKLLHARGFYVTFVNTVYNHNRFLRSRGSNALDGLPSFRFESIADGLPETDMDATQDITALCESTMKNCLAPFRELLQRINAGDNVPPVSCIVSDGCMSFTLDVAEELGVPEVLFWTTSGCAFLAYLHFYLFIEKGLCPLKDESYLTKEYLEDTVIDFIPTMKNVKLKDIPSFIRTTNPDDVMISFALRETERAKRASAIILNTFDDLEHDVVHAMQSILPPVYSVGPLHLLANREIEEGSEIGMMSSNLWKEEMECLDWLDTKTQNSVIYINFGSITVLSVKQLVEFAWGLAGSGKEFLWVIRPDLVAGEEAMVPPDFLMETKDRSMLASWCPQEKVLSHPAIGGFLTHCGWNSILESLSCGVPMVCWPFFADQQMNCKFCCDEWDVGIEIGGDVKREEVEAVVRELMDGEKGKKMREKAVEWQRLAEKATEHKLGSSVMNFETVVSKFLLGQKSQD
Nature of the assay: Glycosylation activity of UGT85A1 on sugar acceptors, LC-MS. Conditions: for relative activity of UGT85A1 on sugar acceptors (in words, FIG. 12): measured per unit reaction time (5 minutes); for glycosylated product of UGT85A1 reaction detected (FIG. 11): same manner as Example 4, LC-MS. The format is biochemical. As for the experimental part: (§1) Standard enzyme reaction conditions are as follows.
(§2) The enzyme reaction solution (5 μl) was analyzed by LC-MS under the following conditions.
In the same manner as shown in Example 4, linalool, 8-hydroxylinalool, geraniol and 8-hydroxygeraniol were used as sugar acceptors for activity measurement.

Assay [3] addresses T1, UGT85A3. Conditions: 8-hydroxygeraniol as sugar acceptor; fraction of the UDP-glucose level. As to the method: as §1, §2

As for `C/C(=C\CC/C(C)=C/CO)CO` [8-hydroxygeraniol, 8-Hydroxygeraniol], in assay [1], the “glycosylation activity of UGT85A3 on the sugar acceptor (product detected by LC-MS)” value (shortened to “glycosylation activity of UGT85A3”) is recorded as “a peak with a molecular weight suggesting addition of one glucose molecule was obtained”. Further, the “activity of UGT85A3 on the 8-hydroxylated form compared with geraniol / linalool (FIG. 7)” value in assay [1] (UDP-glucose as sugar donor, product yields compared) was “higher activity”. For the same compound, in assay [2] (highest activity set to 100%, FIG. 12), the “sugar acceptor selectivity of UGT85A1 (relative activity)” value came to 100%. Besides, in assay [2], the “relative activity of UGT85A1 on sugar acceptors (in words, FIG. 12)” value (“relative activity of UGT85A1” for short) is “higher activity” and the “glycosylated product of UGT85A1 reaction detected (FIG. 11)” value (shortened to “glycosylated product”) was “glycosylated products were detected”. `O=c1cc(-c2ccc(O)cc2)oc2cc(O)cc(O)c12` [Apigenin]: the “glycosylation activity of UGT85A3” value in assay [1] was “no glycosylation activity”. As to `O=c1ccc2cc(O)c(O)cc2o1` [Esculetin], the “glycosylation activity of UGT85A3” value in assay [1] is “no glycosylation activity”. Regarding `O=C1C[C@@H](c2ccc(O)cc2)Oc2cc(O)cc(O)c21` [Naringenin], the “glycosylation activity of UGT85A3” value in assay [1] was “no glycosylation activity”. On the same count and under the same terms, the result for `O=c1c(O)c(-c2ccc(O)c(O)c2)oc2cc(O)cc(O)c12` [Quercetin] reads “no glycosylation activity”; that for `CC(C)=CCCC(C)CCO` (stereo not shown) [citronellol], “glycosylation activity”.

Take `CC(C)=CCC/C(C)=C/CO` [geraniol]: in assay [2], the “relative activity of UGT85A1” value was “higher selectivity for geraniol than linalool” and the “glycosylated product” value is “glycosylated products were detected”. `C=CC(C)(O)CCC=C(C)C` (stereo not shown) [linalool]: in assay [2], the “relative activity of UGT85A1” value is given as “very low relative activity” and the “glycosylated product” value is “glycosylated products were detected”.

Turning to `C=CC(C)(O)CCC=C(C)CCC=C(C)C` (stereo not shown) [nerolidol], the “glycosylation activity of UGT85A3” value in assay [1] is “glycosylation activity”.

For the compound UDP-gluconic acid, the “product level with the sugar donor relative to that with UDP-glucose (FIG. 8)” value in assay [3] is “less than 1/10”.
